Tests used:
[1] = system: Phaeodactylum tricornutum; assay: Net O2 exchange (photosynthesis and respiration), O2 electrode; type: cell-based, Phaeodactylum tricornutum (Diatoms)
Description: (§1) The cyanobacterium Anabaena PCC7120 was grown in BG-11 medium as was previously described (Marcus Y, et al., 2005. J Bacteriol 187, 4222-4228). The green eukaryotic alga Dunaliella salina was grown on a medium described by Ben-Amotz and Avron (Ben-Amotz A and Avron M 1983. Plant Physiol 72, 593-597), under 20 μmol photons m^−2 sec^−1 at 30° C. The aquatic plant Lemna was collected from an open pond at the Botanical garden of Tel Aviv University. Seedlings of Avena sterilis were grown in pots in a greenhouse. The marine diatom Phaeodactylum tricornutum was grown as described in Haimovich-Dayan et al. (Haimovich-Dayan M. et al. 2012. New Phytol 195:177-185).
The rate of net O2 exchange was determined using a Clark-type O2 electrode (Rank Brothers Ltd, UK). Fluorescent measurements (quantum yield, photochemical and non photochemical quenching) were determined using a modulated fluorometer (PAM, Walz, Germany) as described by Schreiber et al. (Schreiber U et al., 1986. fluorometer. Photosynth Res 10, 51-62) and Snir et al. (Snir A, et al., 2006. Photosynth Res 90, 233-242).
The algae Anabaena PCC7120 (Cyanobacteria), Dunaliella salina (Chlorophyta) and Phaeodactylum tricornutum (Diatoms) were each grown in its suitable medium as described hereinabove towards the mid logarithmic phase. 1 mM Ornidazole was then added to the medium for 5 min, and respiration and photosynthesis were measured for at least 10 min.

[2] = system: Anabaena PCC7120; assay: Growth of cyanobacterium determined by chlorophyll concentration; type: cell-based
Description: Cyanobacteria were grown in BG11 medium under 30 μmol photons m^−2 sec^−1 at 30° C. in the presence of the indicated concentration of Ornidazole.
as §1
The effect of Ornidazole on the growth of the cyanobacterium Anabaena PCC7120 was examined by determining the chlorophyll concentration. The algae were grown in BG-11 medium as described herein above. […] One mM Ornidazole in the medium caused a decrease in chlorophyll concentration to 1% of its original concentration after three days of such incubation (FIG. 1).

[3] = biological target: T1, Triose phosphate isomerase (Nostoc sp., UniProt Q8YP17); assay: Calvin cycle enzyme activity; type: biochemical, Anabaena; parameters: endogenous in cells; host or cells: Anabaena PCC7120 extract; conditions: 1 mM Ornidazole
T1 sequence (Q8YP17 1-241): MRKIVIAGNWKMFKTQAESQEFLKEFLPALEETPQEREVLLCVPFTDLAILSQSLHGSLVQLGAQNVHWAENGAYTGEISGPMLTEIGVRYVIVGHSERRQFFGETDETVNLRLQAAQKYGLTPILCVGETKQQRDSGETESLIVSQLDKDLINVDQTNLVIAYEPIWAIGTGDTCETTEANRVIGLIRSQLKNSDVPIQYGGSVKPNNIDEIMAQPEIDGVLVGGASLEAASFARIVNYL
Description: Rubisco was assayed as described by Marcus et al. (2005, ibid) and Snir et al. (2006, ibid). Phospho-ribulose kinase was assayed by conversion of phospho-ribulose to RuBP, which was determined by Rubisco dependent carboxylation with radiolabeled ^14CO2. Plant or cyanobacterial extract was incubated with medium containing 50 mM Hepes pH 8, 10 mM MgCl2, 20 mM NaH^14CO3, 1 mM DTT, 0.5 mM ribose-5-phosphate, ribose-5-phosphate isomerase and activated Rubisco. Phosphoglycerate kinase, GAPDH, FBPase and SBPase were determined as described by Leegood (Leegood R C., 1990. In: Methods in plant biochemistry, Vol 3, pp 15-37, Academic Press).
However, analysis of Ornidazole effect on various enzymes of the Calvin cycle in Anabaena including ribulose-bisphosphate carboxylase/oxygenase (Rubisco), phosphoglycerate kinase, glyceraldehyde-3-phosphate dehydrogenase (GAPDH), triose-phosphate isomerase, aldolase, fructose and sedoheptulose bisphosphatase and phosphoribulose kinase, has shown inhibition of GAPDH and triose-phosphate isomerase (Table 2).

[4] = Phaeodactylum tricornutum, 1 mM Ornidazole added for 5 min

Cc1ncc([N+](=O)[O-])n1CC(O)CCl (centres unmarked) [Ornidazole, 1-chloro-3-(2-methyl-5-nitro-1H-imidazol-1-yl)propan-2-ol]
Photosynthesis [1, 4]: −4.33 μmol O2 mg^−1 chl h^−1 | Respiration [1, 4]: −67.14 μmol O2 mg^−1 chl h^−1 | effect on respiration rate ([1]; Phaeodactylum, 1 mM): stimulated the respiration rate | effect on photosynthesis ([1]; Phaeodactylum, higher concentrations (than 1 mM) or longer incubation time): abolished photosynthesis | effect on growth ([2]; 250 μM Ornidazole in BG-11 medium): stopped the growth and stimulated chlorosis | chlorophyll concentration relative to original concentration ([2]; 1 mM Ornidazole in the medium, after three days): 1% | Activity ([3]; Triose phosphate isomerase): 0 μmol × mg^−1chl × h^−1 | inhibition at 1000 µM ([3]; triose-phosphate isomerase): 98 to 100%

Source: US9237750B2, “Ornidazole and related compounds for use as herbicides” (RAMOT AT TEL-AVIV UNIVERSITY LTD., priority 2012, dated 2016)
